Read-outs that look alike come from different tables or passages of the source.
How the values were obtained:
HIV-1 (R5 JR-CSF) = assay: Antiviral effect of PD before, during and after HIV-1 exposure (TZM-bl); format: cell-based
HIV-1 Jv1083 = assay: HIV infectivity assay in TZM-bl cells; format: cell-based; settings: Jv1083 (clade G, R5); for IC50: Human immunodeficiency virus 1, TZM-bl
HIV-1 93BR029 = assay: microbe, parasite or virus in culture; format: cell-based; settings: 93BR029 (clade F, R5); for IC50: Human immunodeficiency virus 1, TZM-bl
SIVmac251 32H = assay: SIV infectivity assay in TZM-bl cells; format: cell-based; settings: Simian immunodeficiency virus
HIV-1 92UG001 = assay: Anti-HIV efficacy in fresh human PBMC (reverse transcriptase activity); format: cell-based; settings: Human immunodeficiency virus 1, PBMC, 168 h; 92UG001 (clade D, X4/R5); PBMCs, MOI = 0.1, 7 days
VSV-Gpp, HIVpp = format: cell-based, HIV pseudotyped lentiviruses
HIV-1 (X4 NL4.3) = assay: HIV-1 sedimentation assay; settings: 10 μM PD, 30 min, 37° C.
[1] = test system: primary isolates of HIV and SIV; assay: organism not typed; format: cell-based, HIV-1, HIV-2
HIV-1 92RW016 = assay: Anti-HIV efficacy in fresh human PBMC (reverse transcriptase activity); format: cell-based; settings: Human immunodeficiency virus 1, PBMC, 168 h; 92RW016 (clade A, R5); PBMCs, MOI = 0.1, 7 days
[2] = test system: Lactobacillus crispatus ATCC 33197; assay: Lactobacillus toxicity testing (CFU); format: cell-based
Protocol: (§1) Reference strains of L. crispatus and L. jensenii were obtained from the ATCC (Manassas, Va.) and cultured on Columbia blood agar plates at 35° C. in air enriched with 6% CO2. Bacterial suspensions were prepared in saline or ACES buffer to a density of 2 McFarland units (˜2×10^8 bacteria/mL), and exposed to PD (300 μM) or DMSO (10%) for 30 minutes at 37° C. After incubation, the cells were serially diluted in ACES buffer, pH 7.0 (Sigma-Aldrich, St. Louis, Mo.) and plated on blood agar plates to quantify colony forming unit per mL (CFU/mL)
(§2) Different bacterial strains were incubated with 300 μM PD or solvent DMSO-containing control media at 37° C. for 30 min and plated on blood agar plates to estimate their corresponding colony forming units per ml (CFU/ml). Less than 1 log difference between control and test CFU is considered non-toxic 17.

[3] = test system: Lactobacillus jensenii ATCC 25258; assay: Lactobacillus toxicity testing (CFU); format: cell-based
Protocol: as §1, §2

[4] = test system: Lactobacillus jensenii LBP 28Ab; assay: Lactobacillus toxicity testing (CFU); format: cell-based
Protocol: as §1, §2

HIV-1 93BR021 = assay: Anti-HIV efficacy in fresh human PBMC (reverse transcriptase activity); format: cell-based; settings: Human immunodeficiency virus 1, PBMC, 168 h; 93BR021 (clade B, R5); PBMCs, MOI = 0.1, 7 days
HIV-1 92UG005 = assay: HIV infectivity assay in TZM-bl cells; format: cell-based; settings: 92UG005 (clade D, R5); for IC50: Human immunodeficiency virus 1, TZM-bl
HCVcc = format: cell-based, HCV
VSV-Gpp [5] = format: cell-based, HIV lentivirus pseudotyped with VSV-G
HIV-1 RU132 = assay: Anti-HIV efficacy in fresh human PBMC (reverse transcriptase activity); format: cell-based; settings: Human immunodeficiency virus 1, PBMC, 168 h; RU132 (clade G, R5); PBMCs, MOI = 0.1, 7 days
HIV-1 92UG029 = assay: HIV infectivity assay in TZM-bl cells; format: cell-based; settings: 92UG029 (clade A, X4); for IC50: Human immunodeficiency virus 1, TZM-bl
VSV-Gpp [6] = test system: VSV-Gpp
HIV-1 93IN101 = assay: HIV infectivity assay in TZM-bl cells; format: cell-based; settings: 93IN101 (clade C, R5); for IC50: Human immunodeficiency virus 1, TZM-bl
VSV-Gpp [7] = test system: VSV-Gpp; remark: listed apart in the source
[8] = 300 μM PD, less than 1 log difference is considered non-toxic

SMILES: N=C1Sc2ccccc2C2=NCCCN12 [PD, PD 404,182]
- antiviral effect, PD added after virus inoculation (HIV-1 (R5 JR-CSF); 10 μM PD, 1, 2, 4 and 8 h post treatment): loses its antiviral effect
- antiviral effect, extended preincubation of PD with cells (HIV-1 (R5 JR-CSF); 10 μM PD, >16 h prior to virus inoculation): significantly reduces the compound's antiviral efficacy
- antiviral effect, PD added together with the virus (HIV-1 (R5 JR-CSF); 10 μM PD, time zero): significantly inhibits HIV-1 infection
- antiviral effect, PD added before the virus (HIV-1 (R5 JR-CSF); 10 μM PD, up to 8 h before the addition of the virus): retains its full potency
- time antiviral activity is retained in cell culture prior to the addition of HIV-1 (HIV-1 (R5 JR-CSF); cell culture at 37° C.): at least 8 hours
- IC50 (HIV-1 Jv1083; PD in DMEM + 10% FBS): 1100 nM
- IC50 (HIV-1 Jv1083; PD in cervical fluids): 1500 nM
- IC50 (HIV-1 Jv1083; PD in seminal plasma): 1270 nM
- IC90 (HIV-1 Jv1083; PD in DMEM + 10% FBS): 3900 ± 300 nM
- IC90 (HIV-1 Jv1083; PD in cervical fluids): 4700 ± 100 nM
- IC90 (HIV-1 Jv1083; PD in seminal plasma): 4220 ± 390 nM
- IC90 (HIV-1 93BR029; PD in DMEM + 10% FBS): 3500 ± 200 nM
- IC90 (HIV-1 93BR029; PD in cervical fluids): 4600 ± 300 nM
- IC90 (HIV-1 93BR029; PD in seminal plasma): 3720 ± 260 nM
- IC50 (HIV-1 93BR029; PD in DMEM + 10% FBS): 700 nM
- IC50 (HIV-1 93BR029; PD in cervical fluids): 1200 nM
- IC50 (HIV-1 93BR029; PD in seminal plasma): 850 nM
- IC50 (SIVmac251 32H): 1100 nM
- IC50 (HIV-1 92UG001): 1110 nM
- IC90 (HIV-1 92UG001): 1890 nM
- increase in IC50 (VSV-Gpp, HIVpp): 50-80 fold
- sedimentation of HIV capsid and RT in sucrose gradient (HIV-1 (X4 NL4.3)): viral capsid and RT relocate to the top of the gradient
- effect of seminal plasma on PD's anti-HIV activity [1]: does not negatively impact PD's anti-HIV activity
- IC50 ([1]; Human immunodeficiency virus 1, TZM-bl, read-out: IC50 range over tested subtypes of HIV-1): 420 to 1960 nM
- IC90 ([1]; Human immunodeficiency virus 1, TZM-bl, read-out: IC90 range over tested subtypes of HIV-1): 1580 to 7190 nM
- IC50 ([1]; TZM-bl): ~1000 nM
- IC50 ([1]; TZM-bl, read-out: IC50 range): 330 to 1800 nM
- IC90 ([1]; TZM-bl, read-out: IC90 range): 1400 to 6600 nM
- IC50 ([1]; read-out: IC50 range): 610 to 2300 nM
- IC90 ([1]; read-out: IC90 range): 1800 to 7500 nM
- IC50 (HIV-1 92RW016): 220 nM
- IC90 (HIV-1 92RW016): 540 nM
- Log(Control) − Log(PD) [2, 8]: −0.019
- CFU of Lactobacillus treated with 300 μM PD ([2]; 30 min, 37° C.): 7,260,000 CFU
- Log(Control) − Log(PD) [3, 8]: −0.122
- CFU of Lactobacillus treated with 300 μM PD ([3]; 30 min, 37° C.): 7,533,333 CFU
- Log(Control) − Log(PD) [4, 8]: −0.021
- CFU of Lactobacillus treated with 300 μM PD ([4]; 30 min, 37° C.): 10,033,333 CFU
- IC50 (HIV-1 93BR021): 600 nM
- IC90 (HIV-1 93BR021): 4260 nM
- IC50 (DMEM; IC90 per footnote) (HIV-1 92UG005; PD in DMEM + 10% FBS): 5300 ± 400 nM
- IC50 (Cervical Fluid; IC90 per footnote) (HIV-1 92UG005; PD in cervical fluids): 5700 ± 300 nM
- IC50 (Seminal Plasma; IC90 per footnote) (HIV-1 92UG005; PD in seminal plasma): 5570 ± 440 nM
- IC50 (HIV-1 92UG005; PD in DMEM + 10% FBS): 1260 nM
- IC50 (HIV-1 92UG005; PD in cervical fluids): 1390 nM
- IC50 (HIV-1 92UG005; PD in seminal plasma): 1320 nM
- inhibition of HCVcc infectivity (HCVcc): > 10 fold
- VSV-Gpp infectivity remaining (VSV-Gpp [5]): 0.1%
- effect of fetal bovine serum on PD's antiviral activity (VSV-Gpp [5]): no inhibitory effect
- inhibition of VSV-Gpp supernatant infectivity relative to DMSO-treated virus (VSV-Gpp [5]): ~1000 fold
- sensitivity of virus to PD in conditioned medium (VSV-Gpp [5]): significantly less sensitive to inactivation by PD
- IC50 (HIV-1 RU132): 200 nM
- IC90 (HIV-1 RU132): 530 nM
- IC90 (HIV-1 92UG029; PD in DMEM + 10% FBS): 4400 ± 200 nM
- IC90 (HIV-1 92UG029; PD in cervical fluids): 5300 ± 300 nM
- IC90 (HIV-1 92UG029; PD in seminal plasma): 4710 ± 260 nM
- IC50 (HIV-1 92UG029; PD in DMEM + 10% FBS): 1180 nM
- IC50 (HIV-1 92UG029; PD in cervical fluids): 1470 nM
- IC50 (HIV-1 92UG029; PD in seminal plasma): 1330 nM
- stability in acidic buffer (VSV-Gpp [6]; pH 4): highly stable
- activity loss (VSV-Gpp [6]; pH 8): no activity loss
- antiviral activity lost (VSV-Gpp [6]; pH 8): ~20%
- activity loss (VSV-Gpp [6]; pH 10): ~20%
- antiviral activity lost (VSV-Gpp [6]; pH 10): ~50%
- IC50 (DMEM; IC90 per footnote) (HIV-1 93IN101; PD in DMEM + 10% FBS): 5100 ± 300 nM
- IC50 (Cervical Fluid; IC90 per footnote) (HIV-1 93IN101; PD in cervical fluids): 5500 ± 200 nM
- IC50 (Seminal Plasma; IC90 per footnote) (HIV-1 93IN101; PD in seminal plasma): 5360 ± 370 nM
- IC50 (HIV-1 93IN101; PD in DMEM + 10% FBS): 1500 nM
- IC50 (HIV-1 93IN101; PD in cervical fluids): 1800 nM
- IC50 (HIV-1 93IN101; PD in seminal plasma): 1760 nM
- activity loss in cervical fluid (VSV-Gpp [7]): no activity loss

Source: patent US20140227335A1 (priority 2012, published 2014)
